This is an account of results in ChEMBL document CHEMBL3853329, “1,2,4-Triazolyl 5-Azaspiro[2.4]heptanes: Lead Identification and Early Lead Optimization of a New Series of Potent and Selective Dopamine D3 Receptor Antagonists” (J Med Chem, 2016).

SMILES strings stand for the structures.

The nature of series [1]: in vitro. The settings on record: human, liver microsomes.
The nature of series [2]: in vitro. As to conditions: rat, liver microsomes.
A short description of series [3]: in vivo. As to conditions: rat, po, 5 mg/kg.
The conditions of series [4]: human, caco-2.
A short description of series [5]: in vivo. As to conditions: rat, po, 5 mg/kg. The source holds these as a separate data set.
The nature of series [6]: in vivo. The settings on record: rat, iv, 1 mg/kg.
The nature of series [7]: in vivo. The settings on record: rat, whole blood, iv, 1 mg/kg.
A short description of series [8]: in vivo. As to conditions: rat.
Series [9] in a line: in vivo. The settings on record: rat, brain.

`Cn1c(SCCCN2CC[C@]3(C[C@@H]3c3ccc(C(F)(F)F)cc3)C2)nnc1-c1ccc(C(N)=O)cc1`: the values for the intrinsic clearance (microsomal CLint) at 0.5 h, 0.5 µM in “in vitro [1]” and in “in vitro [2]” were 155 µL/min/mg and 41 µL/min/mg, respectively.

As to `Cc1ccc(-c2nnc(SCCCN3CC[C@]4(C[C@@H]4c4ccc(C(F)(F)F)cc4)C3)n2C)c(C)n1`, the intrinsic clearance (microsomal CLint) at 0.5 h, 0.5 µM in “in vitro [1]” is 299 µL/min/mg; in the series “in vitro [2]”, 98 µL/min/mg.

For `Cc1ncoc1-c1nnc(SCCCN2CC[C@]3(C[C@H]3c3ccc(C(F)(F)F)cc3)C2)n1C`, the microsomal CLint at 0.5 h, 0.5 µM in the series “in vitro [1]” was 22 µL/min/mg; in “in vitro [2]”, 161 µL/min/mg.

Take `Cn1c(SCCCN2CC[C@]3(C[C@@H]3c3ccc(C(F)(F)F)cc3)C2)nnc1-c1cccc(-c2ncco2)c1`: the microsomal CLint at 0.5 h, 0.5 µM turned out to be 447 µL/min/mg in “in vitro [1]” and 100 µL/min/mg in “in vitro [2]”.

Turning to `Cn1c(SCCCN2CC[C@]3(C[C@@H]3c3ccc(C(F)(F)F)cc3)C2)nnc1-c1ccc(=O)n(C)c1`, the bioavailability in the series “in vivo [3]” turned out to be 10%. Besides, the permeability entry in [4] is “Permeable”. The microsomal CLint at 0.5 h, 0.5 µM in the series “in vitro [1]” is 41 µL/min/mg; in “in vitro [2]” it was 16 µL/min/mg. The molecule also had a Fa in “in vivo [5]” of 17%. In the series “in vivo [6]”, this molecule had a Vd of 4 L/kg. Further, in the series “in vivo [7]”, the clearance was 30.2 mL/min/kg. The half-life in the series “in vivo [8]” was 1.9 h. In the series “in vivo [9]”, this molecule gave a Kp of 0.4.

Regarding `Cc1ncoc1-c1nnc(SCCCN2CC[C@@]3(C[C@H]3c3ccc(F)cc3F)C2)n1C`, the microsomal CLint at 0.5 h, 0.5 µM was 53 µL/min/mg in “in vitro [1]” and 161 µL/min/mg in “in vitro [2]”.

Regarding `Cc1ncoc1-c1nnc(SCCCN2CC[C@]3(C[C@@H]3c3ccc(C(F)(F)F)cc3)C2)n1C`, the microsomal CLint at 0.5 h, 0.5 µM in “in vitro [1]” is 86 µL/min/mg; in the series “in vitro [2]”, 83 µL/min/mg.

For the molecule `Cc1nc(C(N)=O)ccc1-c1nnc(SCCCN2CC[C@]3(C[C@@H]3c3ccc(C(F)(F)F)cc3)C2)n1C`, the bioavailability in “in vivo [3]” came out at 39%. In addition, the microsomal CLint at 0.5 h, 0.5 µM was 299 µL/min/mg in “in vitro [1]” and 38 µL/min/mg in the series “in vitro [2]”. The Fa in the series “in vivo [5]” is 54%. The molecule also had a Vd in “in vivo [6]” of 5.5 L/kg. The same molecule displayed a clearance in “in vivo [7]” of 21.1 mL/min/kg. The half-life in the series “in vivo [8]” is 4.3 h. This molecule gave a Kp in the series “in vivo [9]” of 1.5.

With `Cn1c(SCCCN2CC[C@]3(C[C@@H]3c3ccc(C(F)(F)F)cc3)C2)nnc1-c1ccc(-c2ncco2)cc1`, the results for the microsomal CLint at 0.5 h, 0.5 µM in “in vitro [1]” and in the series “in vitro [2]” were 352 µL/min/mg and 276 µL/min/mg, respectively.

`Cn1c(SCCCN2CC[C@]3(C[C@@H]3c3ccc(C(F)(F)F)cc3)C2)nnc1C1CCOCC1` gave a bioavailability in “in vivo [3]” of 11%. Besides, the permeability entry in series [4] is on record as “Permeable”. Also, the microsomal CLint at 0.5 h, 0.5 µM is 34 µL/min/mg in “in vitro [1]” and 59 µL/min/mg in “in vitro [2]”. The molecule also had a Fa in the series “in vivo [5]” of 57%. Besides, in the series “in vivo [6]”, the Vd came to 3.7 L/kg. Moreover, the clearance in the series “in vivo [7]” is 87.3 mL/min/kg. Besides, the half-life in “in vivo [8]” was 0.6 h. In addition, the Kp in the series “in vivo [9]” came to 0.3.

Regarding `Cn1c(SCCCN2CC[C@]3(C[C@@H]3c3ccc(C(F)(F)F)cc3F)C2)nnc1-c1cccnc1`, the figures for the microsomal CLint at 0.5 h, 0.5 µM in the series “in vitro [1]” and in “in vitro [2]” were 485 µL/min/mg and 278 µL/min/mg, respectively.

As for `Cn1c(SCCCN2CC[C@]3(C[C@@H]3c3ccc(C(F)(F)F)cc3)C2)nnc1-c1ccc(C(N)=O)nc1`, the bioavailability in “in vivo [3]” is 26%. Besides, the values for the microsomal CLint at 0.5 h, 0.5 µM in the series “in vitro [1]” and in “in vitro [2]” were 106 µL/min/mg and 29 µL/min/mg, respectively. Besides, the Fa in “in vivo [5]” was 40%. For the same molecule, the Vd in the series “in vivo [6]” is 3.2 L/kg. The molecule further had a clearance in “in vivo [7]” of 19.4 mL/min/kg. Also, in the series “in vivo [8]”, the half-life is 2.2 h.

For the molecule `Cn1c(SCCCN2CC[C@]3(C[C@@H]3c3ccc(C(F)(F)F)cc3)C2)nnc1C1CCCCC1`, the microsomal CLint at 0.5 h, 0.5 µM in the series “in vitro [1]” is 339 µL/min/mg; in “in vitro [2]”, 201 µL/min/mg.

As for `Cc1ncoc1-c1nnc(SCCCN2CC[C@@]3(C[C@H]3c3ccc(F)cc3)C2)n1C`, the intrinsic clearance (microsomal CLint) at 0.5 h, 0.5 µM in “in vitro [1]” worked out at 37 µL/min/mg; in the series “in vitro [2]”, 73 µL/min/mg.

In the case of `Cc1ncccc1-c1nnc(SCCCN2CC[C@]3(C[C@@H]3c3ccc(C(F)(F)F)cc3)C2)n1C`, the microsomal CLint at 0.5 h, 0.5 µM in “in vitro [1]” was determined as 80 µL/min/mg; in “in vitro [2]”, 103 µL/min/mg.

Turning to `Cn1c(SCCCN2CC[C@]3(C[C@@H]3c3ccc(C(F)(F)F)cc3)C2)nnc1-c1cccc(C(N)=O)c1`, the values for the microsomal CLint at 0.5 h, 0.5 µM in the series “in vitro [1]” and in “in vitro [2]” were 187 µL/min/mg and 92 µL/min/mg, respectively.

For `Cn1c(SCCCN2CC[C@]3(C[C@@H]3c3ccc(C(F)(F)F)cc3)C2)nnc1-c1ccc(CC(N)=O)cc1`, the microsomal CLint at 0.5 h, 0.5 µM was determined as 58 µL/min/mg in the series “in vitro [1]” and 22 µL/min/mg in the series “in vitro [2]”.

`Cn1c(SCCCN2CC[C@]3(C[C@@H]3c3ccc(C(F)(F)F)cc3)C2)nnc1C1CCNC(=O)C1` (single isomer, unassigned): the microsomal CLint at 0.5 h, 0.5 µM was 25 µL/min/mg in the series “in vitro [1]” and less than 11 µL/min/mg in the series “in vitro [2]”.

In the case of `Cn1c(SCCCN2CC[C@]3(C[C@@H]3c3ccc(C(F)(F)F)cc3)C2)nnc1C1CC2CCC(C1)O2` (single isomer, unassigned; enantiomer 1), the figures for the microsomal CLint at 0.5 h, 0.5 µM in “in vitro [1]” and in “in vitro [2]” were 50 µL/min/mg and 21.3 µL/min/mg, respectively. The molecule further yielded a Vd in the series “in vivo [6]” of 2.6 L/kg. Moreover, the clearance in the series “in vivo [7]” amounted to 80 mL/min/kg.

`Cc1ncoc1-c1nnc(SCCCN2CC[C@]3(C[C@H]3c3ccc(F)cc3C(F)(F)F)C2)n1C` (single isomer, unassigned; enantiomer 1): the microsomal CLint at 0.5 h, 0.5 µM stood at 65 µL/min/mg in the series “in vitro [1]” and 51 µL/min/mg in the series “in vitro [2]”.

`Cc1ncoc1-c1nnc(SCCCN2CC[C@@]3(C[C@H]3c3ccc(F)cc3C(F)(F)F)C2)n1C` (single isomer, unassigned; enantiomer 2): the microsomal CLint at 0.5 h, 0.5 µM was determined as 320 µL/min/mg in the series “in vitro [1]” and 151 µL/min/mg in the series “in vitro [2]”.

In turn, `Cn1c(SCCCN2CC[C@]3(C[C@@H]3c3ccc(C(F)(F)F)cc3)C2)nnc1C1=CCC(=O)N=C1` (stereo in doubt) came in with a bioavailability in the series “in vivo [3]” of 2%. The permeability result in series [4] is on record as “Impermeable”. Moreover, the figures for the microsomal CLint at 0.5 h, 0.5 µM in “in vitro [1]” and in “in vitro [2]” were 28 µL/min/mg and 14 µL/min/mg, respectively. Besides, the Fa in “in vivo [5]” amounted to 1%. Further, the Vd in the series “in vivo [6]” amounted to 9.1 L/kg. In “in vivo [7]”, the clearance came out at 48 mL/min/kg. Moreover, the half-life in the series “in vivo [8]” was 3.4 h.
